Several values for one entry are separate records, joined by “and”; a condition that tells them apart may be missing. Equal entries are not always repeated. Where two headings read alike, the source gives them in different places.
Tests used:
primary neurons = experiment: Dendritic spine density of neurons in the in vitro AD model (APPsw lentivirus); type: cell-based, mouse
Experimental: The extraction and culture of primary neurons were the same as those hereinabove (toxicity experiment section). Transfection of neurons using plasmid calcium: A neuron culture medium (half medium change) was aspirated and placed in a 37°C water bath for later use, and Neurobasel A was added to a 24-well plate. 500 ng of plasmid DNA was dissolved in 12.5 µl of CaCl2 solution, and then centrifuged. 12.5 µl of HBS was added to the EP tube, and then centrifuged. The mixed solution hereinabove was added to the 24-well plate. The 24-well plate was gently shaken, and then placed back into a 37°C incubator to stand for 90 min. […] On day 6 of in vitro culture (DIV6), the original medium was semi-quantitatively collected, and the lentivirus stock solution (100 µl) was diluted with the original medium (10 ml) at a ratio of […]. […] Primary neurons were transfected with calcium-transformed GFP plasmids on day 4 of in vitro culture to enable the neurons to carry green fluorescence for observing neuronal dendrites. […] After 14 days of in vitro culture, the neurons were fixed with 4% PFA, photographed under a 100× oil immersion lens of a confocal fluorescence microscope, and the dendritic spine density per 10 µm length of the neurons was calculated by observing GFP green fluorescence.

APP/PS1 transgenic mice = experiment: Dendritic spine density of hippocampal neurons in brain slices of AD mice; type: in vivo
Experimental: Thy1-GFP mice are commonly used in neuroscience research. The fluorescence labeling of GFP facilitates convenient observation and tracking of specific cell types, especially neurons. APP/PS1 transgenic mice (an animal model of Alzheimer's disease) were crossed with Thy1-GFP mice. The crossed mice aged 5 months were intraperitoneally injected with a compound solution at a concentration of 2.5 mg/kg for 1 month continuously. Subsequently, the crossed mice aged 6 months were subjected to behavioral test (Morris water maze MWM experiment) to evaluate learning and memory abilities (as shown in FIG. 22).
After the water maze behavioral test, the mice were anesthetized and perfused, and then brain tissue sections were taken. The density of neuronal dendritic spines was observed under a confocal fluorescence microscope using GFP green fluorescence.

[1] = Blood drug concentration in mice after single intraperitoneal administration; type: in vivo, Balb/c strain mice
Experimental: Compound preparation: A compound of Formula I was commercially available, which was dissolved and diluted with a solution comprising 10% DMSO+90% (20% HP-β-CD).
Research method: first, Balb/c strain mice were administered with a single intraperitoneal injection at a concentration of 2.5 mg/kg, and the content of the compound in serum was detected at 0.25, 0.5, 1, 2, 4, 6, 8 and 24 h after injection; second, brain tissues of mice at 0.5, 4 and 24 h after injection were collected to detect the compound content, so as to evaluate the blood-brain barrier penetration rate.

Q: For CCOC(=O)c1[nH]c(C)c(CCC(=O)N2CCCC(C(=O)NCCN3CCCCCC3)C2)c1C (centres unmarked) [compound of Formula I, ETHYL4-[3-(3-{[2-(AZEPAN-1-YL)ETHYL]CARBAMOYL}PIPERIDIN-1-YL)-3-OXOPROPYL]-3, 5-DIMETHYL-1H-PYRROLE-2-CARBOXYLATE], which “number of dendritic spines of neurons (normalized to the control group)” value (primary neurons; APP SW+intervention, compound 2.5 µmol for 24 h, individual neurons) is on record?
A: Its value is 0.7841 and 0.7357 and 0.6856 and 0.8651 and 0.6806 and 0.6909 and 0.6481 and 0.7086.

Q: And the dendritic spine density (primary neurons; in vitro AD model (APPsw virus), after compound intervention, group comparison)?
A: The dendritic spine density was “increased”.

Q: And the “dendritic spine density of hippocampal neurons (normalized to the control group)” value (APP/PS1 transgenic mice; APP SW + intervention, IP 2.5 mg/kg for 1 month, brain slices, individual neurons, 2.5 mg/kg)?
A: Its value is 0.7721 and 0.7284 and 0.6276 and 0.7954 and 0.8425 and 0.7853.

Q: And the “dendritic spine density of hippocampal neurons” value (APP/PS1 transgenic mice; after compound intervention vs AD mice)?
A: The value was “increased”.

Q: What about the concentration at 0.25 h ([1]; Balb/c, mouse, serum, ip, 2.5 mg/kg, IP 2.5 mg/kg, 0.25 hr, individual animals, read-out: Concentration (blood)) of the same compound?
A: Its concentration at 0.25 h is 369 ng/mL.

Q: What about the concentration at 0.25 h ([1]; Balb/c, mouse, serum, ip, 2.5 mg/kg, IP 2.5 mg/kg, 0.25 hr, mean of 3 animals, read-out: Concentration (blood) Mean) of the same compound?
A: The concentration at 0.25 h was 423 ng/mL.

Q: And the concentration at 0.5 h ([1]; Balb/c, mouse, serum, ip, 2.5 mg/kg, IP 2.5 mg/kg, 0.5 hr, individual animals, read-out: Concentration (blood))?
A: Its concentration at 0.5 h is 364 ng/mL.

Q: And the concentration at 0.5 h ([1]; Balb/c, mouse, serum, ip, 2.5 mg/kg, IP 2.5 mg/kg, 0.5 hr, mean of 3 animals, read-out: Concentration (blood) Mean)?
A: Its concentration at 0.5 h is 374 ng/mL.

Q: And the concentration at 1 h ([1]; Balb/c, mouse, serum, ip, 2.5 mg/kg, IP 2.5 mg/kg, 1 hr, mean of 3 animals)?
A: The concentration at 1 h was 145 ng/mL.

Q: And the concentration at 2 h ([1]; Balb/c, mouse, serum, ip, 2.5 mg/kg, IP 2.5 mg/kg, 2 hr, mean of 3 animals)?
A: Its concentration at 2 h is 36.1 ng/mL.

Q: What about the concentration at 4 h ([1]; Balb/c, mouse, serum, ip, 2.5 mg/kg, IP 2.5 mg/kg, 4 hr, mean of 3 animals) of the same compound?
A: Its concentration at 4 h is 5.14 ng/mL.

Q: What about the “Concentration (blood)” value ([1]; IP 2.5 mg/kg, 0.25 hr, individual animals, 2.5 mg/kg) of the same compound?
A: Its value is 350 ng/mL and 551 ng/mL.

Q: And the “Concentration (blood)” value ([1]; IP 2.5 mg/kg, 0.5 hr, individual animals, 2.5 mg/kg)?
A: Its value is 328 ng/mL and 431 ng/mL.

Q: And the “Concentration (blood)” value ([1]; IP 2.5 mg/kg, 1 hr, individual animals, 2.5 mg/kg)?
A: Its value is 118 ng/mL and 217 ng/mL and 99.3 ng/mL.

Q: And the “Concentration (blood)” value ([1]; IP 2.5 mg/kg, 2 hr, individual animals, 2.5 mg/kg)?
A: The value was 22.7 ng/mL and 63.7 ng/mL and 22.0 ng/mL.

Q: What about the “Concentration (blood)” value ([1]; IP 2.5 mg/kg, 4 hr, individual animals, 2.5 mg/kg) of the same compound?
A: Its value is 3.63 ng/mL and 8.64 ng/mL and 3.15 ng/mL.

Q: And the “Concentration (blood)” value ([1]; IP 2.5 mg/kg, 6 hr, individual animals)?
A: The value was “BLOQ (BLOQ = Below LOQ, LOQ = 2.0 ng/mL)”.

Q: What about the “Concentration (blood) Mean” value ([1]; IP 2.5 mg/kg, 6 hr, mean of 3 animals) of the same compound?
A: Its value is “BLOQ (BLOQ = Below LOQ, LOQ = 2.0 ng/mL)”.

Q: And the “Concentration (blood)” value ([1]; IP 2.5 mg/kg, 8 hr, individual animals)?
A: The value was “BLOQ (BLOQ = Below LOQ, LOQ = 2.0 ng/mL)”.

Q: And the “Concentration (blood) Mean” value ([1]; IP 2.5 mg/kg, 8 hr, mean of 3 animals)?
A: Its value is “BLOQ (BLOQ = Below LOQ, LOQ = 2.0 ng/mL)”.

Q: And the “Concentration (blood)” value ([1]; IP 2.5 mg/kg, 24 hr, individual animals)?
A: Its value is “BLOQ (BLOQ = Below LOQ, LOQ = 2.0 ng/mL)”.

Q: What about the “Concentration (blood) Mean” value ([1]; IP 2.5 mg/kg, 24 hr, mean of 3 animals) of the same compound?
A: The value was “BLOQ (BLOQ = Below LOQ, LOQ = 2.0 ng/mL)”.

Q: And the “blood concentration of the compound” value ([1]; single IP injection 2.5 mg/kg, after 6 h)?
A: Its value is “undetectable”.
